What is called pIC50 is −log10 of the IC50, conventionally taken in molar units.

Molecules are shown by their SMILES. pIC50: −log10 of the molar value.

The results in this text go back to patent publication US20060166894A1, “Ace-inhibitors having antioxidant and no-donor activity” (Yissum Research Development Company of the Hebrew …, priority 2002, published 2006).

This assay addresses T1, recombinant human somatic ACE (Homo sapiens, UniProt P12821).
T1 construct: purchased R&D Systems
In words: ACE activity, cleavage of fluorogenic peptide substrate. It counts as biochemical. The note with it: fluorogenic substrate 10 μM, 50 mM sodium borate buffer pH 8.2, 37° C. From the text: Angiotensin converting enzyme (ACE) is a dipeptidyl carboxypeptidase that releases the C-terminal dipeptide His-Leu from decapeptide angiotensin I, converting it to the vasoconstrictor angiotensin II (Ang II). The assay for ACE activity will measure the cleavage of a fluorogenic peptide substrate, (7-methoxycoumarin-4-yl)acetyl-Arg-Pro-Pro-Gly-Phe-Ser-Ala-Phe-Lys(2,4 dinitrophenyl; R&D Systems). This peptide substrate contains a fluorescent 7-methoxycoumarin group that is internally quenched by resonance energy transfer to the 2,4-dinitrophenyl group. ACE cleaves the peptide between the Ala-Phe (between the fluorescent group and the quencher group), resulting in an increase in fluorescence. The assay is carried out in a 96-well plate. […] Fluorescence changes (relative fluorescence units/min, RFU/min) are measured using a fmax fluorescence microplate reader (Molecular Devices with SoftmaxPro software) at 37° C. with excitation and emission wavelengths of 320 nm and 405 nm, respectively. A background rate determined for samples containing no ACE is subtracted from all reactions to calculate the initial rates in RFU/min. […]
The ACE activity of the compound N-{2-([1,2]dithiolan-3-yl)-propionyl}-pyrrolidine-2-carboxylic acid was measured as described above.

T1 sequence (P12821 30-1306): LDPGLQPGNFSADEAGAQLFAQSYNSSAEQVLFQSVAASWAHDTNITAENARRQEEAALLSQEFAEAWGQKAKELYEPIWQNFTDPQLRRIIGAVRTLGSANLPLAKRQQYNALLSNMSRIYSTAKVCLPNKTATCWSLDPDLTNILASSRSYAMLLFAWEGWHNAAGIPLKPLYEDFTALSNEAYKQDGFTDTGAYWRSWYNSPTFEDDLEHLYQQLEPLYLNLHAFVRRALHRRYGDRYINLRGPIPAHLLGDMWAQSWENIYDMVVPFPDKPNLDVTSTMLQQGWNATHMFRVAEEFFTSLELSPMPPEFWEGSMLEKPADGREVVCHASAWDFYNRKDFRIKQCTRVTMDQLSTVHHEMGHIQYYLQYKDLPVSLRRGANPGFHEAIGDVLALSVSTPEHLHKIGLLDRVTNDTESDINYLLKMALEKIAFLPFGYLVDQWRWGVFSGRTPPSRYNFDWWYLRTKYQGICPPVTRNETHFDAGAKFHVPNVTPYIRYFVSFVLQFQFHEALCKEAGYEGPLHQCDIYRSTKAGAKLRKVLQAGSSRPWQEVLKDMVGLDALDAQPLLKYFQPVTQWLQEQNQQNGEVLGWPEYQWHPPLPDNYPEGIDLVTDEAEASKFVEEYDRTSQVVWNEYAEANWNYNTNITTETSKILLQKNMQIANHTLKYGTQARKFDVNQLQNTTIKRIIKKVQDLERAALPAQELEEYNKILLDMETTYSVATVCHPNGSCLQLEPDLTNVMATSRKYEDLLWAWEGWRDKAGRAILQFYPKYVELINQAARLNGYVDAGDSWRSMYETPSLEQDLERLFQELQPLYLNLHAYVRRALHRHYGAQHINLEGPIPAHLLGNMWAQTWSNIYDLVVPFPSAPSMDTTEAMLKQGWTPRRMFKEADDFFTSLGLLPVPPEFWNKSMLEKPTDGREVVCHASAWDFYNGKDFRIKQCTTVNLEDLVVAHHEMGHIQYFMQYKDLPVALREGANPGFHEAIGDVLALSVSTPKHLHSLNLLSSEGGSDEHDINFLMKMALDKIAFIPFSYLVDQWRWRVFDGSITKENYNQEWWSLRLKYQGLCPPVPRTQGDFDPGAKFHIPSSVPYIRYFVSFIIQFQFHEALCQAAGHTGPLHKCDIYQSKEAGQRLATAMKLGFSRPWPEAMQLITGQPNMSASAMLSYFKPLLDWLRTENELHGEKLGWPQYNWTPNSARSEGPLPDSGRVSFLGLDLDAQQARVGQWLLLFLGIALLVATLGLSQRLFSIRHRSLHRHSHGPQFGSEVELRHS

Turning to `CC(C(=O)N1CCCC1C(=O)O)C1CCSS1` (stereo not shown) [N-{2-([1,2]Dithiolan-3-yl)-propionyl}-pyrrolidine-2-carboxylic acid], the pIC50 is 4.19.
